Laboratory results as given in article PMC7408547, “Bivalent Inhibitor with Selectivity for Trimeric MMP-9 Amplifies Neutrophil Chemotaxis and Enables Functional Studies on MMP-9 Proteoforms” (Cells, 2020).

How the values were obtained:
U-87 cell line = assay: U-87 cell proliferation (confluence, Incucyte); type: cell-based; details: up to a concentration of 20 µM; 17 h
Protocol: Toxicity of compounds 5 and 7 was evaluated in vitro on the U-87 cell line. Briefly, U-87 cells were seeded in 96-well plates (cat. No. 92096, TPP Techno Plastic Products, Trasadingen, Switzerland) at 2000 cells/well in DMEM FluoroBrite containing 10% FBS and incubated for 24 h. Cells were washed and further grown in DMEM FluoroBrite with 5% KnockOut™ Serum Replacement (Gibco, Waltham, MA, USA). Compounds 5 and 7 were added to the wells in a 1:2 dilution series starting at 20 µM and ending at 0.16 µM. To evaluate the effect of the compound on cell growth, confluence was determined every hour for 17h using the Incucyte® S3 Live-Cell Analysis System (Sartorius, Göttingen, Germany). Next, cells were stained with the LIVE/DEAD™ Viability/Cytotoxicity Kit for mammalian cells (Invitrogen, Carlsbad, CA, USA; cat. # L3224) and cell viability was evaluated. Data were normalized to the mean confluence of wells containing no inhibitors. To measure the stability of the compounds, fresh blood was collected from heathy mice by cardiac puncture with a heparin-coated needle and syringe and 30UI/mL heparin was added. Next, compound 5, compound 7 or vehicle (DMSO) was added to the blood at a final concentration of 500 µM and incubated at 37 °C. […] Background inhibition was subtracted and results were expressed as percentage inhibition.

MMP-2 = molecular target: T1, MMP-2 (Homo sapiens, UniProt P08253); assay: MMP-2 gelatin degradation assay; type: biochemical; details: gelatin substrate
T1 construct: purchased R & D systems; host or cells: CHO cells
T1 sequence (P08253 110-660): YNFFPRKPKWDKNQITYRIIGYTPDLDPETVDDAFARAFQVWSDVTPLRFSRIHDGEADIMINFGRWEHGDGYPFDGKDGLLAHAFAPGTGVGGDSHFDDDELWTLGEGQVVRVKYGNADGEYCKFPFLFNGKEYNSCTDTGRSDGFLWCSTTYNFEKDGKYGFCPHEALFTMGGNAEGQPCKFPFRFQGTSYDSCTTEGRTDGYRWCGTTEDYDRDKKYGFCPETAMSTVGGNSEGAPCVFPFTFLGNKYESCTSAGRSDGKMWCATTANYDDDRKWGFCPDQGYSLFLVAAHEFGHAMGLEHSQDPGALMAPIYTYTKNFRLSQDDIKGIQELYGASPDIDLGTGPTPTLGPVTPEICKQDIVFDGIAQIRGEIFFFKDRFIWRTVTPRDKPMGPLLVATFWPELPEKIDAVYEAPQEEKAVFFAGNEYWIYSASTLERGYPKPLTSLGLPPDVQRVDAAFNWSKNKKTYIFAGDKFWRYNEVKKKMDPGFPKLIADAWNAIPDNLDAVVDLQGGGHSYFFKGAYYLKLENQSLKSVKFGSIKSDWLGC
Protocol: Compounds 5 and 7 were synthesized as previously reported. Full-length human proMMP-9 was produced by recombinant expression in Sf9 insect cells and purified by gelatin-Sepharose chromatography as previously described. Stable full-length proMMP-9 monomers and trimers were separated by glycerol gradient ultracentrifugation as previously described. ProMMP-9 mixture and the separated monomers and trimers were activated by incubation with the catalytic domain of MMP-3 (cat. No. 444217, Merck Millipore, Darmstadt, Germany) as previously described. […] ADAM17/TACE (Sf 21 (baculovirus)-derived, R & D systems, Minneapolis, MO, USA) was diluted and evaluated in 25 mM Tris, 2.5 μM ZnCl2, 0.005% Brij-35, pH 9.0. All stocks of the compounds were evaluated for the presence of endotoxin using the EndoZyme II assay (Hyglos bioMérieux, Bernried am Starnberger See, Germany). […]
To determine the inhibition of gelatinolytic activity, we used a previously optimized gelatin degradation assay. […] Next, dye-quenched gelatin (DQ™-gelatin, Invitrogen, Carlsbad, CA, USA) was added at a final concentration of 2.5 µg/mL and the increase in fluorescence over time was measured with the CLARIOstar microplate reader (BMG Labtech, Ortenberg, Germany). […]

Row | Compound | effect on proliferation of U-87 cells (U-87 cell line) | IC50 (MMP-2) [nM]
1 | CC(C)[C@H](C(=O)O)N(CCNC(=O)c1ccccc1)S(=O)(=O)c1ccc(-c2ccccc2)cc1 [Compound 5] | did not reduce proliferation | 1720
2 | CC(C)[C@H](C(=O)O)N(CCNC(=O)c1cccc(C(=O)NCCN([C@@H](C(=O)O)C(C)C)S(=O)(=O)c2ccc(-c3ccccc3)cc2)c1)S(=O)(=O)c1ccc(-c2ccccc2)cc1 [Compound 7] | did not reduce proliferation | 4.8
